Data on 37 compounds can be found in patent US7595401B2, “Therapeutic compounds and their use in cancer” (Myriad Pharmaceuticals, Inc., priority 2006, dated 2009).

Some results are limits rather than exact numbers.

One experiment relates to purified human Hsp90. Description: Binding Assay: fluorescence polarization with BODIPY-labeled geldanamycin. Conditions: 5 μM compound, BODIPY-GM 10 nM, Hsp90 30 nM. The method in brief: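 Compounds in 2% DMSO final compete with 10 nM BODIPY-GM for 30 nM purified human Hsp90, incubated overnight at room temperature in pH 7.3 HEPES buffer containing Na2MoO4 and DTT. Polarization (mP, ex/em 485/530) normalized to DMSO gives percent inhibition; autofluorescence-confounded data excluded.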
Take `COc1ccc(C#N)cc1Sc1nc2c(N)ncn(CCc3ccccc3)c-2n1` [Example 305, 3-{[6-Amino-3-(2-phenylethyl)-3H-purin-8-yl]thio}-4-methoxybenzonitrile]: the % Inhibition (usually the drop in the measured response relative to a control, in per cent) at 5 μM Compound Concentration is given as 29.0%. Still for that read-out and setting: as for `COc1ccc(C#N)cc1Sc1nc2c(N)ncn(CCc3ccccc3Cl)c-2n1` [Example 307, 3-({6-Amino-3-[2-(2-chlorophenyl)ethyl]-3H-purin-8-yl}thio)-4-methoxybenzonitrile], the figure is 40.0%; as for `COc1cccc(CCn2cnc(N)c3nc(Sc4cc5c(cc4Br)OCO5)nc2-3)c1` [Example 309, 8-[(6-Bromo-1,3-benzodioxol-5-yl)thio]-3-[2-(3-methoxyphenyl)ethyl]-3H-purin-6-amine], 25.0%; as for `COc1ccc(I)c(Sc2nc3c(N)ncn(CCc4ccc(I)cc4)c-3n2)c1` [Example 311, 8-[(2-Iodo-5-methoxyphenyl)thio]-3-[2-(4-iodophenyl)ethyl]-3H-purin-6-amine], 0.0%. Same read-out and setting: as for `COc1ccc(F)cc1Sc1nc2c(N)ncn(CCc3ccccc3)c-2n1` [Example 313, 8-[(5-Fluoro-2-methoxyphenyl)thio]-3-(2-phenylethyl)-3H-purin-6-amine], the figure is 3.0%; as for `COc1ccc(C)cc1Sc1nc2c(N)ncn(CCc3ccccc3)c-2n1` [Example 315, 8-[(2-Methoxy-5-methylphenyl)thio]-3-(2-phenylethyl)-3H-purin-6-amine], 21.0%; as for `COc1ccc(F)cc1Sc1nc2c(N)ncn(CCc3ccccc3Cl)c-2n1` [Example 317, 3-[2-(2-Chlorophenyl)ethyl]-8-[(5-fluoro-2-methoxyphenyl)thio]-3H-purin-6-amine], 0.0%. Same read-out and setting: as for `COc1ccc([N+](=O)[O-])cc1Sc1nc2c(N)ncn(CCc3ccccc3Cl)c-2n1` [Example 319, 3-[2-(2-Chlorophenyl)ethyl]-8-[(2-methoxy-5-nitrophenyl)thio]-3H-purin-6-amine], the figure is 27.0%; as for `N#Cc1cc2c(cc1Sc1nc3c(N)ncn(CCc4ccccc4)c-3n1)OCO2` [Example 321, 6-{[6-Amino-3-(2-phenylethyl)-3H-purin-8-yl]thio}-1,3-benzodioxole-5-carbonitrile], 49.0%. Consider `COc1ccc(I)c(Sc2nc3c(N)ncn(CCc4ccccc4)c-3n2)c1` [Example 323, 8-[(2-Iodo-5-methoxyphenyl)thio]-3-(2-phenylethyl)-3H-purin-6-amine], for which the “% Inhibition at 5 μM Compound Concentration” value (shortened to “% Inhibition”) is 0.0%. On to `COc1ccc(C)cc1Sc1nc2c(N)ncn(CCc3ccccc3Cl)c-2n1` [Example 325, 3-[2-(2-Chlorophenyl)ethyl]-8-[(2-methoxy-5-methylphenyl)thio]-3H-purin-6-amine], for which the “% Inhibition” value is given as 0.0%. Take `N#Cc1cc2c(cc1Sc1nc3c(N)ncn(CCc4ccccc4Cl)c-3n1)OCO2` [Example 327, 6-({6-Amino-3-[2-(2-chlorophenyl)ethyl]-3H-purin-8-yl}thio)-1,3-benzodioxole-5-carbonitrile]: the “% Inhibition” value was determined as 33.0%. Same read-out and setting: as for `Nc1ncnc2c1nc(Sc1cc(OC(F)(F)F)ccc1OC1CCCC1)n2CCc1ccccc1Cl` [Example 329, 9-[2-(2-Chlorophenyl)ethyl]-8-{[2-(cyclopentyloxy)-5-(trifluoromethoxy)phenyl]thio}-9H-purin-6-amine], the figure is 25.0%. Still for that read-out and setting: as for `Cc1ncsc1CCn1cnc(N)c2nc(Sc3cc4c(cc3Br)OCO4)nc1-2` [Example 331, 8-[(6-Bromo-1,3-benzodioxol-5-yl)thio]-3-[2-(4-methyl-1,3-thiazol-5-yl)ethyl]-3H-purin-6-amine], the figure is 25.0%; as for `CC(C)(NCCn1cnc(N)c2nc(Sc3cc4c(cc3Br)OCO4)nc1-2)c1ccccn1` [Example 333, 8-[(6-Bromo-1,3-benzodioxol-5-yl)thio]-3-{2-[(1-methyl-1-pyridin-2-ylethyl)amino]ethyl}-3H-purin-6-amine], 43.0%; as for `COc1ccc(OC)c(Sc2nc3c(N)ncn(CCn4ccnc4)c-3n2)c1` [Example 336, 8-[(2,5-Dimethoxyphenyl)thio]-3-[2-(1H-imidazol-1-yl)ethyl]-3H-purin-6-amine], 13.0%.

Consider `CCOC(=O)N1CCCCC1CCn1cnc(N)c2nc(Sc3cc(OC)ccc3OC)nc1-2` (stereo not shown) [Example 338, 2-{2-[6-amino-8-(2,5-dimethoxy-phenylsulfanyl)-purin-3-yl]-ethyl}-piperidine-1-carboxylic acid ethyl ester], for which the “% Inhibition” value is recorded as 0%. The same measure, in the same setting: to `CCOC(=O)N1CCCCC1CCn1cnc(N)c2nc(Sc3cc4c(cc3Br)OCO4)nc1-2` (stereo not shown) [Example 340, Ethyl 2-(2-{6-amino-8-[(6-bromo-1,3-benzodioxol-5-yl)thio]-3H-purin-3-carboxylate] belongs 23%.

The same experiment, now with this note: BODIPY-GM 10 nM, Hsp90 30 nM.
Turning to `COc1ccc(C#N)cc1Sc1nc2c(N)ncnc2n1CCc1ccccc1Cl` [Example 306, 3-({6-Amino-9-[2-(2-chlorophenyl)ethyl]-9H-purin-8-yl}thio)-4-methoxybenzonitrile], the IC50 (usually the concentration needed to halve the response being measured) was > 25000 nM.

Take `COc1cccc(CCn2c(Sc3cc4c(cc3Br)OCO4)nc3c(N)ncnc32)c1` [Example 308, 8-[(6-Bromo-1,3-benzodioxol-5-yl)thio]-9-[2-(3-methoxyphenyl)ethyl]-9H-purin-6-amine]: the IC50 stood at 180 nM. Take `COc1ccc(I)c(Sc2nc3c(N)ncnc3n2CCc2ccc(I)cc2)c1` [Example 310, 8-[(2-Iodo-5-methoxyphenyl)thio]-9-[2-(4-iodophenyl)ethyl]-9H-purin-6-amine]: the IC50 is > 25000 nM. As for `COc1ccc(F)cc1Sc1nc2c(N)ncnc2n1CCc1ccccc1` [Example 312, 8-[(5-Fluoro-2-methoxyphenyl)thio]-9-(2-phenylethyl)-9H-purin-6-amine], the IC50 is > 25000 nM. Still for that read-out and setting: as for `COc1ccc(C)cc1Sc1nc2c(N)ncnc2n1CCc1ccccc1` [Example 314, 8-[(2-Methoxy-5-methylphenyl)thio]-9-(2-phenylethyl)-9H-purin-6-amine], the figure is 6800 nM; as for `COc1ccc(F)cc1Sc1nc2c(N)ncnc2n1CCc1ccccc1Cl` [Example 316, 9-[2-(2-Chlorophenyl)ethyl]-8-[(5-fluoro-2-methoxyphenyl)thio]-9H-purin-6-amine], 18000 nM; as for `COc1ccc([N+](=O)[O-])cc1Sc1nc2c(N)ncnc2n1CCc1ccccc1Cl` [Example 318, 9-[2-(2-Chlorophenyl)ethyl]-8-[(2-methoxy-5-nitrophenyl)thio]-9H-purin-6-amine], 7000 nM. Regarding `N#Cc1cc2c(cc1Sc1nc3c(N)ncnc3n1CCc1ccccc1)OCO2` [Example 320, 6-{[6-Amino-9-(2-phenylethyl)-9H-purin-8-yl]thio}-1,3-benzodioxole-5-carbonitrile], the IC50 came out at 240 nM. Same read-out and setting: as for `COc1ccc(I)c(Sc2nc3c(N)ncnc3n2CCc2ccccc2)c1` [Example 322, 8-[(2-Iodo-5-methoxyphenyl)thio]-9-(2-phenylethyl)-9H-purin-6-amine], the figure is 100 nM; as for `COc1ccc(C)cc1Sc1nc2c(N)ncnc2n1CCc1ccccc1Cl` [Example 324, 9-[2-(2-Chlorophenyl)ethyl]-8-[(2-methoxy-5-methylphenyl)thio]-9H-purin-6-amine], 2800 nM; as for `N#Cc1cc2c(cc1Sc1nc3c(N)ncnc3n1CCc1ccccc1Cl)OCO2` [Example 326, 6-({6-Amino-9-[2-(2-chlorophenyl)ethyl]-9H-purin-8-yl}thio)-1,3-benzodioxole-5-carbonitrile], 35 nM. As to `Nc1ncnc2c1nc(Sc1cc(OC(F)(F)F)ccc1OC1CCCC1)n2CCc1ccccc1` [Example 328, 8-{[2-(Cyclopentyloxy)-5-(trifluoromethoxy)phenyl]thio}-9-(2-phenylethyl)-9H-purin-6-amine], the IC50 was > 8000 nM. On the same count and under the same terms, as for `Cc1ncsc1CCn1c(Sc2cc3c(cc2Br)OCO3)nc2c(N)ncnc21` [Example 330, 8-[(6-Bromo-1,3-benzodioxol-5-yl)thio]-9-[2-(4-methyl-1,3-thiazol-5-yl)ethyl]-9H-purin-6-amine], the figure is 70 nM. With `COc1ccc(OC)c(Sc2nc3c(N)ncnc3n2CCNC(C)(C)c2ccccn2)c1` [Example 334, 8-[(2,5-Dimethoxyphenyl)thio]-9-{2-[(1-methyl-1-pyridin-2-ylethyl)amino]ethyl}-9H-purin-6-amine], the IC50 came to 2300 nM. `COc1ccc(OC)c(Sc2nc3c(N)ncnc3n2CCn2ccnc2)c1` [Example 335, 8-[(2,5-Dimethoxyphenyl)thio]-9-[2-(1H-imidazol-1-yl)ethyl]-9H-purin-6-amine] displayed an IC50 of 3000 nM.

Take `CCOC(=O)N1CCCCC1CCn1c(Sc2cc(OC)ccc2OC)nc2c(N)ncnc21` (stereo not shown) [Example 337, 2-{2-[6-Amino-8-(2,5-dimethoxy-phenylsulfanyl)-purin-9-yl]-ethyl}-piperidine-1-carboxylic acid ethyl ester]: the IC50 was > 8000 nM. The same measure, in the same setting: as for `CCOC(=O)N1CCCCC1CCn1c(Sc2cc3c(cc2Br)OCO3)nc2c(N)ncnc21` (stereo not shown) [Example 339, Ethyl 2-(2-{6-amino-8-[(6-bromo-1,3-benzodioxol-5-yl)thio]-9H-purin-9-yl}ethyl)piperidine-1-carboxylate], the figure is 115 nM. As for `CC(C)(C)OC(=O)N1CCC(CCn2c(Sc3cc4c(cc3Br)OCO4)nc3c(N)ncnc32)CC1` [Example 341, tert-Butyl 4-(2-{6-amino-8-[(6-bromo-1,3-benzodioxol-5-yl)thio]-9H-purin-9-yl}ethyl)piperidine-1-carboxylate], the IC50 turned out to be 200 nM. Still for that read-out and setting: to `COc1ccc(OC)c(Sc2nc3c(N)ncnc3n2CCC2CCN(C(=O)OC(C)(C)C)CC2)c1` [Example 342, tert-Butyl 4-(2-{6-amino-8-[(2,5-dimethoxyphenyl)thio]-9H-purin-9-yl}ethyl)piperidine-1-carboxylate] belongs 19000 nM.
